Source: US20120041036A1, “SUBSTITUTED ACYLGUANIDINE DERIVATIVES (AS AMENDED)” (priority 2009, published 2012)
Where a name gives a salt, the structure may show the parent alone.

Key:
[1] = molecular target: T1, human 5-HT5A receptor (Homo sapiens, UniProt P47898); assay: Test on a human 5-HT5A receptor binding inhibition ([3H]5-CT, membrane from HEK293 cells); conditions: for Ki: membrane from HEK293 cells expressing human 5-HT5A receptor, Ki calculated from IC50 and Kd of [3H]5-CT
T1 construct: expressed in transfected cells; membrane preparation
Protocol: The ORF (open reading frame; protein coding region) of a human 5-HT5A receptor (Genbank AF498985) was cloned from a human hippocampus cDNA library, and then inserted into a pCR2.1 vector (Invitrogen), and Escherichia coli containing the plasmid was cultured in a large amount. Next, the full-length cDNA sequence of the human 5-HT5A receptor was analyzed, and recombined into a pCDNA3.1 vector (Invitrogen) as an expression vector and cultured in a large amount. HEK293 established cells (ATCC) derived from the human fetal kidney were seeded, the expression plasmid (1 μg) obtained above were added thereto with LIPOFECTAMINE 2000 (Invitrogen; 2 μl), the gene was transfected into HEK293 cells, and the expression cells were screened with a drug-resistant marker, Geneticin (G418 sulfate 500 μg/ml; Kanto Chemical Co., Inc.). Thus prepared recombinant cells which expressed the gene were cultured in a medium containing D-MEM (Dulbecco's modified eagle medium, Sigma), 10% FCS (Fetal calf serum: fetal bovine serum), 1% Pc./Sm (Penicillin/Streptomycin, Invitrogen), and 500 μg/ml G418 for 3 days. These experimental operations followed a manual for gene operation experiment and an instruction appended in a reagent, and the like, such as a known method (Sambrook, J. et al, Molecular Cloning—A Laboratory Manual”, Cold Spring Harbor laboratory, NY, 1989).
HEK293 cells for forced expressions of a human 5-HT5A receptor were cultured in a F500 plate, and scraped with a scraper. After centrifugation, the precipitate was collected, and an incubation buffer (50 mM Tris (HCl) (pH 7.4), 10 mM MgSO4, and 0.5 mM EDTA (ethylenediamine tetraacetic acid)) was added thereto. After homogenization, it was further centrifuged, and the incubation buffer was added to the precipitate, followed by thoroughly suspending. The operation was repeated, and protein concentration was measured, thereby completing preparation of the membrane.
A solution of the compound to be tested and 100 μM 5-CT (5-carboxamidetriptamine) in DMSO was added to a 96-well plate at 2 μl/well, suspended in an incubation buffer, and a membrane from HEK293 cells for forced expressions of a human 5-HT5A receptor prepared at 200 μg/ml was added at 100 μl/well. After incubation at room temperature for 15 minutes, a [^3H]5-CT solution (2 nM [^3H]5-CT, incubation buffer) was added thereto at 100 μl/well.
Separately, 100 μl of the solution was distributed into a liquid scintillation vial, and 2 ml of Aquasol II (registered trademark) was added thereto, followed by stirring. Then, radioactivity was measured by a liquid scintillation counter. It was incubated at 37° C. for 60 minutes. The reaction mixture was sucked into 96-well GF/C filter plate that had been pre-treated with 0.2% polyethyleneimine, and washed six times with an ice-cooled, 50 mM Tris (pH 7.5) buffer. The GF/C filter plate was dried.
Microscint TMPS (registered trademark) was added thereto at 40 μl/well. Radioactivity remaining on the GF/C filter plate was measured by a top counter.
The [^3H]5-CT binding inhibiting activity by the compound to be tested in each experiment was determined as an IC50 value with a radioactivity upon addition of DMSO alone being 0% inhibition, and a radioactivity upon addition of 1 μM 5-CT being 100% inhibition. Separately, Ki values were calculated from the Kd value of the [^3H]5-CT determined from Scatchard analysis, by the following equation.

[2] = tested on: hyperactivity caused by MK-801; assay: Improvement effect on increase in motion induced by methamphetamine or MK-801 in mice; assay type: in vivo; conditions: male ICR mouse; oral dose 0.03 mg/kg; MK-801 0.3 mg/kg i.p.; motion measured 60 minutes; significance P<0.05
Protocol: The improvement effect of compound of formula (I) was evaluated by measuring the quantity of motion by IR irradiation when a compound was administered to a mouse in which hyperactivity was caused by methamphetamine (hereinafter, simply referred to as “MAP”) or MK-801, known as an animal model of schizophrenia.
An animal was taken out of a breeding cage, orally administered with a compound to be tested, and then placed into a cage for breeding. After 30 minutes, the animal was put into a cage for measurement, and the motion with the compound to be tested alone was measured. Further, after 30 to 90 minutes, the animal was taken out, and intraperitoneally administered with a drug for increasing the motion (MAP; 1 mg/kg or MK-801; 0.3 mg/kg, dissolved in a physiological saline, respectively). Then, the motion for a certain period of time (60 minutes) was measured by using a motion measurement device (CompACT AMS from Muromachi Kikai Co., Ltd.) by means of an infrared sensor.
For a normal mouse (a mouse administered with physiological saline) and a mouse administered with a drug for increasing the motion, a Student's T test was performed for evaluation for each interval. For a group administered with the compound to be tested, an assay was performed using a solvent (vehicle) group and a Dunnett's T test. […]

T1 sequence (P47898 whole entry): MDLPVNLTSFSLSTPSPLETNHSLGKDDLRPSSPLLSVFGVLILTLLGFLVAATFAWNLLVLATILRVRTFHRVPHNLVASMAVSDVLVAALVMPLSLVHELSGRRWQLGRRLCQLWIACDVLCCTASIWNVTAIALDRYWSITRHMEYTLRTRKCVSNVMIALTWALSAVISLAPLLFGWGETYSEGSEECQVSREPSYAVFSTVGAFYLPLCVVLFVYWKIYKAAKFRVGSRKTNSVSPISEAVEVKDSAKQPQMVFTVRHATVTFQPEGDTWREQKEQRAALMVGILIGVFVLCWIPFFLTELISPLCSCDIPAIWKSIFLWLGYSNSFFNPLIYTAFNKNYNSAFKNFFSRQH

Compound	Ki [1] [nM]	further results
N#Cc1ccc2ccc(C(=O)N=C(N)N)cc2c1-c1c(F)cc(CO)cc1F [Example 17]	30 to 300	
N#Cc1ccc2ccc(C(=O)N=C(N)N)cc2c1-c1c(F)cccc1Cl [Example 1, 8-(2-chloro-6-fluorophenyl)-7-cyano-N-(diaminomethylene)-2-naphthamide hydrochloride]	4.3	inhibition of hyperactivity (motion) caused by MK-801 [2]: significantly inhibited
COc1cc(C#N)ccc1-c1c(C#N)ccc2ccc(C(=O)N=C(N)N)cc12 [Example 15]	30 to 300	
N#Cc1cc(F)c(-c2ccncc2)c2cc(C(=O)N=C(N)N)ccc12 [Example 19]	30 to 300	
N#Cc1ccc2ccc(C(=O)N=C(N)N)cc2c1-c1ccncc1F [Example 4]	30 to 300	
N#Cc1ccc2ccc(C(=O)N=C(N)N)cc2c1C1CC1 [Example 21]	30 to 300	
NCCc1c[nH]c2ccc(C(N)=O)cc12 [[^3H]5-CT, 5-carboxamidetriptamine, reference compound]		Kd ([1]; human 5-HT5A receptor membrane, read-out: Kd value of [3H]5-CT determined from Scatchard analysis): 4.95 nM
N#Cc1ccc2ccc(C(=O)N=C(N)N)cc2c1-c1ccncc1Cl [Example 3]	30 to 300	
CS(=O)(=O)c1ccc2ccc(C(=O)N=C(N)N)cc2c1-c1c(F)cc(F)cc1F [Example 13]	30 to 300	
N#Cc1ccc2ccc(C(=O)N=C(N)N)cc2c1C1=CCOCC1 [Example 16]	30 to 300	

Second part, led by results:

Ki [1] [nM]	Compound	further results
1 to 30	N#Cc1ccc2ccc(C(=O)N=C(N)N)cc2c1-c1ccc(F)cc1F [Example 6]	
1 to 30	N#Cc1ccc2ccc(C(=O)N=C(N)N)cc2c1-c1ccccc1Cl [Example 9]	
1 to 30	CSc1ccc2ccc(C(=O)N=C(N)N)cc2c1-c1c(F)cc(F)cc1F [Example 12]	
1 to 30	N#Cc1ccc2ccc(C(=O)N=C(N)N)cc2c1-c1c(F)cncc1F [Example 18]	
1 to 30	N#Cc1ccc2ccc(C(=O)N=C(N)N)cc2c1-c1ccc(F)cc1 [Example 14]	
1 to 30	N#Cc1ccc2ccc(C(=O)N=C(N)N)cc2c1-c1c(F)cc(F)cc1F [Example 2]	
1 to 30	N#Cc1ccc2ccc(C(=O)N=C(N)N)cc2c1-c1c(F)cccc1F [Example 7]	
1 to 30	N#Cc1ccc2ccc(C(=O)N=C(N)N)cc2c1-c1ccccc1F [Example 10]	
1 to 30	N#Cc1ccc2ccc(C(=O)N=C(N)N)cc2c1-c1ccccc1 [Example 20]	
1 to 30	COc1cccc(F)c1-c1c(C#N)ccc2ccc(C(=O)N=C(N)N)cc12 [Example 8]	
1 to 30	N#Cc1cc(F)c(-c2c(F)cc(F)cc2F)c2cc(C(=O)N=C(N)N)ccc12 [Example 5]	
